Source: patent US20220056037A1 (SPV THERAPEUTICS INC., priority 2018, published 2022)
Like-named read-outs stand apart in the source and are kept apart here.

Legend:
CDK6-CYCLIND3 = molecular target: T1, CDK6-CYCLIND3 (Homo sapiens, UniProt Q00534); assay: Inhibition assay, microfluidic LabChip (Nanosyn); format: biochemical; details: ATP 300 μM
T1 construct: purchased Carna
Method: (§1) The reaction was terminated by the addition of EDTA. The plates were analyzed using a Caliper LabChip 3000.
(§2) Additional inhibition assays were performed as described above.

CDK4-CYCLIND1 = molecular target: T2, CDK4-CYCLIND1 (Homo sapiens, UniProt P11802); assay: Inhibition assay, microfluidic LabChip (Nanosyn); format: biochemical; details: Table 2; ATP 200 μM; read-out: CDK4 IC50
T2 construct: purchased Invitrogen
Method: as §1, §2

T1 sequence (Q00534 whole entry): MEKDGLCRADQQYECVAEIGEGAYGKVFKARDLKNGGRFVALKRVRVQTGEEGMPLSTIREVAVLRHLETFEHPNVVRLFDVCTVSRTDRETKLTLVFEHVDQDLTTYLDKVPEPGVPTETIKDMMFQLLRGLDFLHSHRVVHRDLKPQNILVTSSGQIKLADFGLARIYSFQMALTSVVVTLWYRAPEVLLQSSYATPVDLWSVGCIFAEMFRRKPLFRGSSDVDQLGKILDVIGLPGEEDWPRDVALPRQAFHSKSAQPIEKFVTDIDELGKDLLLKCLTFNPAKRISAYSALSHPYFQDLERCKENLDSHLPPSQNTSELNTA
T1 sequence (P30281 whole entry partner): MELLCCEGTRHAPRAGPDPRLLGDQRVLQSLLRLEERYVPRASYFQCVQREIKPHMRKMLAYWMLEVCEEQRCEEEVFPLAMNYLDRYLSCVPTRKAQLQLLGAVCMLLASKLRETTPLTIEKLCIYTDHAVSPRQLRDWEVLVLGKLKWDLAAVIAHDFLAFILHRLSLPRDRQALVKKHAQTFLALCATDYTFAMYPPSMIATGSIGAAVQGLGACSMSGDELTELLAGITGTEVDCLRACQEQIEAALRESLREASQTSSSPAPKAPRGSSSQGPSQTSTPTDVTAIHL
T2 sequence (P11802 whole entry): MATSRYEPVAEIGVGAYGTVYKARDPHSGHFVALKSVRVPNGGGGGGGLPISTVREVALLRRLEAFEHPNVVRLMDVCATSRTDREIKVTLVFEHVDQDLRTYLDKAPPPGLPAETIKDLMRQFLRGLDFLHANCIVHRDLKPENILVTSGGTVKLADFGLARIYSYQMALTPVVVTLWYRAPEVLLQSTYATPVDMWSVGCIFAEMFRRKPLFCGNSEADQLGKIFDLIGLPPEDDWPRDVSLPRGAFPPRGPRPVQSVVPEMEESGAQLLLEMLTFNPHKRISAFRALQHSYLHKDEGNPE
T2 sequence (P24385 whole entry partner): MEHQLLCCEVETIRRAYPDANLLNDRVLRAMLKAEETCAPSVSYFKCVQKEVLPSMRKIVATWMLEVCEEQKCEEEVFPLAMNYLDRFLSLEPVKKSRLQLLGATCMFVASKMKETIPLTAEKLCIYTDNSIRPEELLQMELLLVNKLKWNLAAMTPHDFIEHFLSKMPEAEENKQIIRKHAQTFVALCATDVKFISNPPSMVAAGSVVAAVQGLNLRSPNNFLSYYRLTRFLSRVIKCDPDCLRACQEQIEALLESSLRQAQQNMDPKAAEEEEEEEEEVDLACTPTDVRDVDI

Row | IC50 (CDK6-CYCLIND3; Table 2, read-out: CDK6 IC50) [nM] | IC50 (CDK4-CYCLIND1) [nM] | SMILES | IC50 (CDK6-CYCLIND3; CDK6 IC50, Table 2) [nM]
1 | 12600 | 2740 | CN1CCN(c2cnc(Nc3ncc4c(F)c(C(=O)N(C)C)n(C5CCCC5)c4n3)cc2C(F)(F)F)CC1 [Compound A18, 7-cyclopentyl-5-fluoro-N,N-dimethyl-2-((5-(4-methylpiperazin-1-yl)-4-(trifluoromethyl)pyridin-2-yl)amino)-7H-pyrrolo[2,3-d]pyrimidine-6-carboxamide] | 
2 | 45.3 | 15.4 | CN1CCN(c2ccc(Nc3ncc4c(F)c(C(=O)N(C)C)n(C5CCCC5)c4n3)cc2)CC1 [Compound A19, 7-cyclopentyl-5-fluoro-N,N-dimethyl-2-((4-(4-methylpiperazin-1-yl)phenyl)amino)-7H-pyrrolo[2,3-d]pyrimidine-6-carboxamide] | 
3 | 74.6 | 33 | CN(C)C(=O)c1c(F)c2cnc(Nc3ccc(N4CCOCC4)c(F)c3)nc2n1C1CCCC1 [Compound A20, 7-cyclopentyl-5-fluoro-2-((3-fluoro-4-morpholinophenyl)amino)-N,N-dimethyl-7H-pyrrolo[2,3-d]pyrimidine-6-carboxamide] | 
4 | 98.6 | 51.2 | CC(C)N1CC=C(c2ccc(Nc3ncc4c(F)c(C(=O)N(C)C)n(C5CCCC5)c4n3)nc2)CC1 [Compound A21, 7-cyclopentyl-5-fluoro-2-((1′-isopropyl-1′,2′,3′,6′-tetrahydro-[3,4′-bipyridin]-6-yl)amino)-N,N-dimethyl-7H-pyrrolo[2,3-d]pyrimidine-6-carboxamide] | 
5 | 82 | 41.7 | CN(C)C(=O)c1c(F)c2cnc(Nc3ccc(C4=CCNCC4)cn3)nc2n1C1CCCC1 [Compound A22, 7-cyclopentyl-5-fluoro-N,N-dimethyl-2-((1′,2′,3′,6′-tetrahydro-[3,4′-bipyridin]-6-yl)amino)-7H-pyrrolo[2,3-d]pyrimidine-6-carboxamide] | 
6 | 97 | 34.3 | CN(C)C(=O)c1cc2cnc(Nc3ccc(N4CCN(C#N)CC4)cn3)nc2n1C1CCCC1 [Compound A23, 2-((5-(4-cyanopiperazin-1-yl)pyridin-2-yl)amino)-7-cyclopentyl-N,N-dimethyl-7H-pyrrolo[2,3-d]pyrimidine-6-carboxamide] | 
7 | 1430 | 457 | CN(C)C(=O)c1cc2cnc(Nc3cc(C(F)(F)F)c(N4CCNCC4)cn3)nc2n1C1CCCC1 [Compound A24, 7-cyclopentyl-N,N-dimethyl-2-((5-(piperazin-1-yl)-4-(trifluoromethyl)pyridin-2-yl)amino)-7H-pyrrolo[2,3-d]pyrimidine-6-carboxamide] | 
8 | 4860 | 2290 | CN(C)C(=O)c1c(F)c2cnc(Nc3cc(C(F)(F)F)c(N4CCNCC4)cn3)nc2n1C1CCCC1 [Compound A25, 7-cyclopentyl-5-fluoro-N,N-dimethyl-2-((5-(piperazin-1-yl)-4-(trifluoromethyl)pyridin-2-yl)amino)-7H-pyrrolo[2,3-d]pyrimidine-6-carboxamide] | 
9 | 119 | 39.3 | CN(C)C(=O)c1c(F)c2cnc(Nc3ccc(OCCN4CCCC4)nc3)nc2n1C1CCCC1 [Compound A26, 7-cyclopentyl-5-fluoro-N,N-dimethyl-2-((6-(2-(pyrrolidin-1-yl)ethoxy)pyridin-3-yl)amino)-7H-pyrrolo[2,3-d]pyrimidine-6-carboxamide] | 
10 | 116 | 39.6 | CN(C)C(=O)c1c(F)c2cnc(Nc3ccc(OCCN4CCCCC4)nc3)nc2n1C1CCCC1 [Compound A27, 7-cyclopentyl-5-fluoro-N,N-dimethyl-2-((6-(2-(piperidin-1-yl)ethoxy)pyridin-3-yl)amino)-7H-pyrrolo[2,3-d]pyrimidine-6-carboxamide] | 
11 |  | 52000 | CC(C)N1CCN(c2ccc(Nc3ncc4cc(C(=O)N(C)C)n(C56CC(C5)C6)c4n3)cc2)CC1 [Compound A37, 7-(bicyclo[1.1.1]pentan-1-yl)-2-((4-(4-isopropylpiperazin-1-yl)phenyl)amino)-N,N-dimethyl-7H-pyrrolo[2,3-d]pyrimidine-6-carboxamide] | 

Further lines, the compound ahead of its results:

Row | SMILES | IC50 (CDK6-CYCLIND3; Table 2, read-out: CDK6 IC50) [nM] | IC50 (CDK4-CYCLIND1) [nM] | IC50 (CDK6-CYCLIND3; CDK6 IC50, Table 2) [nM]
12 | CN(C)C(=O)c1c(F)c2cnc(Nc3ccc(N4CCNCC4)cn3)nc2n1C1CCCC1 [Compound A1, 7-cyclopentyl-5-fluoro-N,N-dimethyl-2-((5-(piperazin-1-yl)pyridin-2-yl)amino)-7H-pyrrolo[2,3-d]pyrimidine-6-carboxamide] | 54.3 | 38.7 | 
13 | CN1CCN(c2ccc(Nc3ncc4c(F)c(C(=O)N(C)C)n(C5CCCC5)c4n3)nc2)CC1 [Compound A2] | 54.3 | 37.9 | 
14 | CN(C)CCOc1ccc(Nc2ncc3c(F)c(C(=O)N(C)C)n(C4CCCC4)c3n2)nc1 [Compound A3, 7-cyclopentyl-2-((5-(2-(dimethylamino)ethoxy)pyridin-2-yl)amino)-5-fluoro-N,N-dimethyl-7H-pyrrolo[2,3-d]pyrimidine-6-carboxamide] | 64.5 | 48 | 
15 | CN(C)CCOc1ccc(Nc2ncc3cc(C(=O)N(C)C)n(C4CCCC4)c3n2)nc1 [Compound A4, 7-cyclopentyl-2-((5-(2-(dimethylamino)ethoxy)pyridin-2-yl)amino)-N,N-dimethyl-7H-pyrrolo[2,3-d]pyrimidine-6-carboxamide] | 34.9 | 18.9 | 
16 | CN(C)C(=O)c1cc2cnc(Nc3ccc(OCCN4CCCC4)cn3)nc2n1C1CCCC1 [Compound A5, 7-cyclopentyl-N,N-dimethyl-2-((5-(2-(pyrrolidin-1-yl)ethoxy)pyridin-2-yl)amino)-7H-pyrrolo[2,3-d]pyrimidine-6-carboxamide] | 50.6 | 19.3 | 
17 | CN(C)C(=O)c1cc2cnc(Nc3ccc(OCCN4CCCCC4)cn3)nc2n1C1CCCC1 [Compound A6, 7-cyclopentyl-N,N-dimethyl-2-((5-(2-(piperidin-1-yl)ethoxy)pyridin-2-yl)amino)-7H-pyrrolo[2,3-d]pyrimidine-6-carboxamide] | 36.4 | 15.2 | 
18 | CN(C)CCOc1ccc(Nc2ncc3c(F)c(C(=O)N(C)C)n(C4CCCC4)c3n2)cc1 [Compound A7, 7-cyclopentyl-2-((4-(2-(dimethylamino)ethoxy)phenyl)amino)-5-fluoro-N,N-dimethyl-7H-pyrrolo[2,3-d]pyrimidine-6-carboxamide] | 63 | 22.2 | 
19 | CN(C)C(=O)c1cc2cnc(Nc3ccc(OCCN4CCCC4)nc3)nc2n1C1CCCC1 [Compound A8, 7-cyclopentyl-N,N-dimethyl-2-((6-(2-(pyrrolidin-1-yl)ethoxy)pyridin-3-yl)amino)-7H-pyrrolo[2,3-d]pyrimidine-6-carboxamide] | 23.6 | 4.98 | 
20 | CN(C)C(=O)c1cc2cnc(Nc3ccc(N4CCN5CCC4CC5)cn3)nc2n1C1CCCC1 [Compound A9, 2-((5-(1,4-diazabicyclo[3.2.2]nonan-4-yl)pyridin-2-yl)amino)-7-cyclopentyl-N,N-dimethyl-7H-pyrrolo[2,3-d]pyrimidine-6-carboxamide] | 54.9 | 21 | 
21 | CN(C)C(=O)c1c(F)c2cnc(Nc3ccc(N4CCN5CCC4CC5)cn3)nc2n1C1CCCC1 [Compound A10, 2-((5-(1,4-diazabicyclo[3.2.2]nonan-4-yl)pyridin-2-yl)amino)-7-cyclopentyl-5-fluoro-N,N-dimethyl-7H-pyrrolo[2,3-d]pyrimidine-6-carboxamide] | 50 | 30.4 | 
22 | CC(C)N1CCN(c2ccc(Nc3ncc4cc(C(=O)N(C)C)n(C5CCCC5)c4n3)cc2F)CC1 [Compound A11, 7-cyclopentyl-2-((3-fluoro-4-(4-isopropylpiperazin-1-yl)phenyl)amino)-N,N-dimethyl-7H-pyrrolo[2,3-d]pyrimidine-6-carboxamide] | 12 | 3.88 | 
23 | CN(C)C(=O)c1cc2cnc(Nc3ccc(N4CCNCC4)cn3)nc2n1C12CC(C1)C2 [Compound A12, 7-(bicyclo[1.1.1]pentan-1-yl)-N,N-dimethyl-2-((5-(piperazin-1-yl)pyridin-2-yl)amino)-7H-pyrrolo[2,3-d]pyrimidine-6-carboxamide] | 10 | 12.4 | 
24 | CN(C)C(=O)c1cc2cnc(Nc3ccc(C4=CCNCC4)cn3)nc2n1C12CC(C1)C2 [Compound A13, 7-(bicyclo[1.1.1]pentan-1-yl)-N,N-dimethyl-2-((1′,2′,3′,6′-tetrahydro-[3,4′-bipyridin]-6-yl)amino)-7H-pyrrolo[2,3-d]pyrimidine-6-carboxamide] | 8.29 | 14.7 | 
25 | CN1CCN(c2ccc(Nc3ncc4cc(C(=O)N(C)C)n(C56CC(C5)C6)c4n3)cc2)CC1 [Compound A14, 7-(bicyclo[1.1.1]pentan-1-yl)-N,N-dimethyl-2-((4-(4-methylpiperazin-1-yl)phenyl)amino)-7H-pyrrolo[2,3-d]pyrimidine-6-carboxamide] |  |  | 7.08
26 | CN(C)CCOc1ccc(Nc2ncc3cc(C(=O)N(C)C)n(C45CC(C4)C5)c3n2)nc1 [Compound A15, 7-(bicyclo[1.1.1]pentan-1-yl)-2-((5-(2-(dimethylamino)ethoxy)pyridin-2-yl)amino)-N,N-dimethyl-7H-pyrrolo[2,3-d]pyrimidine-6-carboxamide] | 23.8 | 31.5 | 
27 | CN(C)C(=O)c1cc2cnc(Nc3ccc(N4CCNCC4)cc3)nc2n1C12CC(C1)C2 [Compound A16, 7-(bicyclo[1.1.1]pentan-1-yl)-N,N-dimethyl-2-((4-(piperazin-1-yl)phenyl)amino)-7H-pyrrolo[2,3-d]pyrimidine-6-carboxamide] | 7.68 | 2.94 | 
28 | CN(C)C(=O)c1cc2cnc(Nc3ccc(N4CCNCC4)c(F)c3)nc2n1C12CC(C1)C2 [Compound A17, 7-(bicyclo[1.1.1]pentan-1-yl)-2-((3-fluoro-4-(piperazin-1-yl)phenyl)amino)-N,N-dimethyl-7H-pyrrolo[2,3-d]pyrimidine-6-carboxamide] | 8.04 | 3.04 | 
